Values joined by “and” are separate entries in the source; they are usually repeats but may differ in a detail not shown here. Equal values may be shown once.
Test: Solubility of alkylphenol in water at digestion conditions
Format: physicochemical
Settings: 240 C, 15 bar N2, 30 g xylenol + 30 g deionized water, phases separated hot, consecutive samples via bottom dip tube
Text: Stirring was stopped, and phases were allowed to separate while hot, before sampling of all reactor contents via consecutive withdrawal of samples via a bottom dip tube.

Compound: Cc1cccc(C)c1O [xylenol, 2,6-dimethylphenol]
- weight fraction of xylenol in water, individual samples withdrawn: 18.6 weight percent and 26 weight percent and 32 weight percent
